Results as given in US20220386606A1, “SPECIFICALLY SUBSTITUTED 3-PHENYL-5-SPIROCYCLOPENTYL-3-PYRROLIN-2-ONES AND THEIR USE AS HERBICIDES” (Bayer Aktiengesellschaft, priority 2019, published 2022).

What was measured:
ALOMY [1] = test: Pre-emergence herbicidal action against ALOMY; assay type: in vivo, Alopecurus myosuroides; conditions: 320 g/ha, scored visually after 3 weeks vs untreated controls
In short: (§1)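 Pots of sandy loam with covered seeds receive a surface application of compound (WP or EC; aqueous, 600 to 800 L/ha, 0.2% wetting agent) before emergence. Under good greenhouse growth conditions, percent damage is judged by eye at 3 weeks against untreated controls.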

AVEFA [2] = test: Pre-emergence herbicidal action against AVEFA; assay type: in vivo, Avena fatua; conditions: 320 g/ha, scored visually after 3 weeks vs untreated controls
In short: as §1

DIGSA [3] = test: Pre-emergence herbicidal action against DIGSA; assay type: in vivo, Digitaria sanguinalis; conditions: 320 g/ha, scored visually after 3 weeks vs untreated controls
In short: as §1

ECHCG [4] = test: Pre-emergence herbicidal action against ECHCG; assay type: in vivo, Echinochloa crus-galli; conditions: 320 g/ha, scored visually after 3 weeks vs untreated controls
In short: as §1

LOLRI [5] = test: Pre-emergence herbicidal action against LOLRI (Table 8, titled post-emergence at 320 g/ha); assay type: in vivo, Lolium rigidum; conditions: table stands in the pre-emergence section
In short: as §1

SETVI [6] = test: Pre-emergence herbicidal action against SETVI; assay type: in vivo, Setaria viridis; conditions: 320 g/ha, scored visually after 3 weeks vs untreated controls
In short: as §1

AMARE [7] = test: Pre-emergence herbicidal action against AMARE; assay type: in vivo, Amaranthus retroflexus; conditions: 320 g/ha
In short: as §1

MATIN = test: Pre-emergence herbicidal action against MATIN; assay type: in vivo; conditions: 320 g/ha
In short: as §1

POLCO = test: Pre-emergence herbicidal action against POLCO; assay type: in vivo, Polygonum convolvulus; conditions: 320 g/ha
In short: as §1

VIOTR [8] = test: Pre-emergence herbicidal action against VIOTR; assay type: in vivo, Viola tricolor; conditions: 320 g/ha
In short: as §1

ALOMY [9] = test: Post-emergence herbicidal action against ALOMY; assay type: in vivo, Alopecurus myosuroides; conditions: 80 g/ha, visual assessment after about 3 weeks
In short: (§2)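 Plants at the one-leaf stage receive a foliar spray of the formulated compound, with a 600 to 800 l/ha water rate and 0.2% wetting agent. Percent activity is judged by eye after roughly 3 weeks in the greenhouse.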

AVEFA [10] = test: Post-emergence herbicidal action against AVEFA; assay type: in vivo, Avena fatua; conditions: 80 g/ha, visual assessment after about 3 weeks
In short: as §2

DIGSA [11] = test: Post-emergence herbicidal action against DIGSA; assay type: in vivo, Digitaria sanguinalis; conditions: 80 g/ha, visual assessment about 3 weeks after treatment vs untreated controls
In short: as §2

ECHCG [12] = test: Post-emergence herbicidal action against ECHCG; assay type: in vivo, Echinochloa crus-galli; conditions: 80 g/ha, visual assessment about 3 weeks after treatment vs untreated controls
In short: as §2

LOLRI [13] = test: Post-emergence herbicidal action against LOLRI; assay type: in vivo, Lolium rigidum; conditions: 80 g/ha, visual assessment about 3 weeks after treatment vs untreated controls
In short: as §2

SETVI [14] = test: Post-emergence herbicidal action against SETVI; assay type: in vivo, Setaria viridis; conditions: 80 g/ha, visual assessment about 3 weeks after treatment vs untreated controls
In short: as §2

ABUTH [15] = test: Post-emergence herbicidal action against ABUTH; assay type: in vivo, Abutylon threophrasti; conditions: 80 g/ha, visual assessment about 3 weeks after treatment vs untreated controls
In short: as §2

VIOTR [16] = test: Post-emergence herbicidal action against VIOTR; assay type: in vivo, Viola tricolor; conditions: 80 g/ha, visual assessment about 3 weeks after treatment vs untreated controls
Method: (§3) Seeds of monocotyledonous and dicotyledonous weed and crop plants are laid out in sandy loam soil in wood-fiber pots, covered with soil and cultivated in a greenhouse under good growth conditions. 2 to 3 weeks after sowing, the test plants are treated at the one-leaf stage. The compounds of the invention, formulated in the form of wettable powders (WP) or as emulsion concentrates (EC), are then sprayed onto the green parts of the plants as aqueous suspension or emulsion at a water application rate equating to 600 to 800 l/ha with addition of 0.2% wetting agent. After the test plants have been left to stand in the greenhouse under optimal growth conditions for about 3 weeks, the action of the preparations is assessed visually in comparison to untreated controls (herbicidal action in percent (%): 100% activity=the plants have died, 0% activity=like control plants).

AMARE [17] = test: Post-emergence herbicidal action against AMARE; assay type: in vivo, Amaranthus retroflexus; conditions: 80 g/ha, visual assessment about 3 weeks after treatment vs untreated controls
Method: as §3

HORMU = test: Post-emergence herbicidal action against HORMU; assay type: in vivo, Hordeum murinum; conditions: 80 g/ha, visual assessment about 3 weeks after treatment vs untreated controls
Method: as §3

ABUTH [18] = test: Pre-emergence herbicidal action against ABUTH; assay type: in vivo, Abutylon threophrasti; conditions: 320 g/ha
Excerpt: Seeds of monocotyledonous and dicotyledonous weed plants and crop plants are laid out in sandy loam soil in wood-fiber pots and covered with soil. The compounds of the invention, formulated in the form of wettable powders (WP) or as emulsion concentrates (EC), are then applied to the surface of the covering soil as aqueous suspension or emulsion at a water application rate equating to 600 to 800 L/ha with addition of 0.2% wetting agent.
After the treatment, the pots are placed in a greenhouse and kept under good growth conditions for the trial plants. The damage to the test plants is scored visually after a test period of 3 weeks by comparison with untreated controls (herbicidal activity in percent (%): 100% activity=the plants have died, 0% activity=like control plants).

VERPE = test: Pre-emergence herbicidal action against VERPE; assay type: in vivo, Veronica persica; conditions: 320 g/ha
In short: as §1

SMILES | Pre-emergence action against ALOMY in % (ALOMY [1]) | Pre-emergence action against AVEFA in % (AVEFA [2]) | Pre-emergence action against DIGSA in % (DIGSA [3]) | Pre-emergence action against ECHCG in % (ECHCG [4]) | Pre-emergence herbicidal action against LOLRI in % (LOLRI [5]) | Pre-emergence action against SETVI in % (SETVI [6]) | Pre-emergence action against VIOTR in % (VIOTR [8]) | Post-emergence action against ALOMY in % (ALOMY [9]) | Post-emergence action against AVEFA in % (AVEFA [10]) | Post-emergence action against DIGSA in % (DIGSA [11]) | Post-emergence action against ECHCG in % (ECHCG [12]) | Post-emergence action against LOLRI in % (LOLRI [13]) | Post-emergence action against SETVI in % (SETVI [14]) | Post-emergence action against ABUTH in % (ABUTH [15]) | Post-emergence action against VIOTR in % (VIOTR [16]) | Post-emergence action against AMARE in % (AMARE [17]) | Pre-emergence action against VERPE in % (VERPE) | further results
CC#Cc1cc(C)c(C2=C(O)C3(CCC(COC)C3)NC2=O)c(Br)c1 (centres unmarked) [Example I-19] | 100% | 100% | 100% | 100% | 100% | 100% | 100% | 100% | 90% | 100% | 100% | 100% | 100% | 90% | 80% | – | – | Pre-emergence action against AMARE in % (AMARE [7]): 100%; Pre-emergence action against MATIN in % (MATIN): 80%; Pre-emergence action against POLCO in % (POLCO): 100%
CC#Cc1cc(C)c(C2=C(O)C3(CCC(COC)C3)NC2=O)c(OC)c1 (centres unmarked) [Example I-31] | 100% | 80% | 100% | 100% | 100% | 100% | 80% | 100% | 100% | 100% | 100% | 100% | 100% | 80% | – | 80% | – | –
CC#Cc1cc(C)c(C2=C(O)C3(CCC(COC)C3)NC2=O)c(F)c1 (centres unmarked) [Example I-36] | 100% | 80% | 100% | 100% | 100% | 100% | 80% | 100% | 100% | 100% | 100% | 100% | – | 80% | – | 80% | – | Pre-emergence action against AMARE in % (AMARE [7]): 90%
CC#Cc1cc(F)c(C2=C(O)C3(CCC(COC)C3)NC2=O)c(OC)c1 (centres unmarked) [Example I-40] | 100% | 100% | 100% | 100% | 90% | 100% | – | 100% | 90% | 100% | 100% | 90% | 100% | – | – | 80% | – | –
CC#Cc1cc(C)c(C2=C(OC(=O)C(C)C)C3(CCC(COCC)C3)NC2=O)c(Cl)c1 (centres unmarked) [Example P-17] | – | – | – | – | – | – | – | 100% | 100% | 100% | 100% | 100% | 100% | 90% | 80% | – | – | Post-emergence action against HORMU in % (HORMU): 100%
CC#Cc1cc(C)c(C2=C(OC(=O)OCC)C3(CCC(COC)C3)NC2=O)c(Cl)c1 (centres unmarked) [Example P-18] | – | – | – | – | – | – | – | 100% | 100% | 100% | 100% | 100% | 100% | 80% | – | 80% | – | Post-emergence action against HORMU in % (HORMU): 100%
CC#Cc1cc(C)c(C2=C(OC(=O)OCC)C3(CCC(COCC)C3)NC2=O)c(Br)c1 (centres unmarked) [Example P-34] | 100% | 100% | 100% | 100% | 100% | 100% | 100% | 100% | 90% | 100% | 100% | 90% | 100% | – | 80% | – | 80% | Pre-emergence action against ABUTH in % (ABUTH [18]): 90%
CC#Cc1cc(F)c(C2=C(OC(=O)OCC)C3(CCC(COC)C3)NC2=O)c(OC)c1 (centres unmarked) [Example P-62] | 100% | 90% | 100% | 100% | 100% | 100% | – | 90% | 90% | 100% | 100% | 90% | 100% | 80% | – | 80% | – | –
C=CCOCC1CCC2(C1)NC(=O)C(c1c(C)cc(C#CC)cc1Cl)=C2OC(=O)OCC (centres unmarked) [Example P-71] | 100% | 90% | 100% | 100% | 100% | 100% | 100% | 80% | 80% | 90% | 100% | 80% | 100% | – | 100% | – | 90% | Pre-emergence action against POLCO in % (POLCO): 90%
C=CCOCC1CCC2(C1)NC(=O)C(c1c(C)cc(C#CC)cc1Br)=C2OC(=O)OCC (centres unmarked) [Example P-88] | 100% | 90% | 100% | 100% | 100% | 100% | 100% | 100% | – | 90% | 100% | 100% | 100% | – | – | 80% | 100% | Pre-emergence action against ABUTH in % (ABUTH [18]): 80%
